{"source": "patent US9161945B2", "about": "“4-isopropyl-6-methoxyphenyl glucitol compound” (TAISHO PHARMACEUTICAL CO., LTD., priority 2010, dated 2015)", "key": {"[1]": {"test_system": "streptozotocin diabetic model rats", "assay": "Oral glucose tolerance test (hypoglycemic effect) in streptozotocin diabetic model rats", "type": "in vivo, SD/IGS rats", "conditions": "for STZ rats OGTT % inhibition ΔAUC0-1h (mg/dl) @ 1 mg/kg/po: STZ-induced diabetic rats versus vehicle control, oral dose 1 mg/kg, glucose 2 g/kg", "method": "(§1) Test Example 3 Confirmation study of hypoglycemic effect in streptozotocin diabetic model rats\n(§2) (1) Preparation of Diabetic Model Rats\n(§3) SD/IGS rats at 7 weeks of age (male, Charles River Laboratories Japan Inc.) were fasted for about 16 hours and then injected with 50 mg/kg streptozotocin (STZ) via the caudal vein under ether anesthesia to prepare diabetic model rats. Similarly, another group of SD/IGS rats at 7 weeks of age was injected with 1.25 mmol/L citric acid in physiological saline (1 mL/kg) via the caudal vein under ether anesthesia to prepare normal control rats. At one week after injection of STZ or 1.25 mmol/L citric acid in physiological saline, the rats (8 weeks old) were provided for an oral glucose tolerance test.\n(§4) (2) Oral Glucose Tolerance Test\n(§5) […] At 5 minutes after drug administration, a glucose solution (2 g/kg) was orally administered to each rat, and the blood was collected at a total of 5 time points: before drug administration (0 time), and at 0.25, 0.5, 1 and 2 hours after the oral administration.\n(§6) Blood was collected from the caudal veins of the rats under ether anesthesia with the use of a heparin-coated blood collecting tube and centrifuged, whereafter blood plasma was separated. Plasma glucose concentrations were quantified by measurement with a Glucose CII-Test Wako (Wako Pure Chemical Industries, Ltd., Japan). To determine the intensity of hypoglycemic effect, the blood glucose level before drug administration was subtracted from each blood glucose level measured until one hour after oral administration in each drug group, and the resulting values were analyzed by the trapezoidal method to calculate an increment in the area under the curve for glucose (ΔAUC), which was expressed as a decrease relative to ΔAUC of the control group."}, "human SGLT1": {"biological_target": "human SGLT1 (Homo sapiens (Human), UniProt P13866)", "sequence (P13866 whole entry)": "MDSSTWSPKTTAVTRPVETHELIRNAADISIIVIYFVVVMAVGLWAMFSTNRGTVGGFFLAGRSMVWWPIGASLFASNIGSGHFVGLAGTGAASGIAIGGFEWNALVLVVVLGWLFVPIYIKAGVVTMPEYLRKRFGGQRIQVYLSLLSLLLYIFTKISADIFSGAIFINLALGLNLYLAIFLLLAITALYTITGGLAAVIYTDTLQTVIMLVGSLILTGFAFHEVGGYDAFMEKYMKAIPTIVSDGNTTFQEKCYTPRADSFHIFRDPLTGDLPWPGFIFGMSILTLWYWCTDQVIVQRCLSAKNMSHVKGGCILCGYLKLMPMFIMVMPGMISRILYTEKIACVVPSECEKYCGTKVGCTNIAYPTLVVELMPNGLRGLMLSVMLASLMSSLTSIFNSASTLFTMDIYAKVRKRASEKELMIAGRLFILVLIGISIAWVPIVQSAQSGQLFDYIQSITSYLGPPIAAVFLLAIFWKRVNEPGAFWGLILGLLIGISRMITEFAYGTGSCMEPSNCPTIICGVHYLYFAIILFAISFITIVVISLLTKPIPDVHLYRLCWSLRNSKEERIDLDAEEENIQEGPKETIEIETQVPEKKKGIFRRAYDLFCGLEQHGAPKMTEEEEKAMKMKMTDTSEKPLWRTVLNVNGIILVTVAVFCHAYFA", "assay": "Inhibition test of sodium-dependent glucose uptake in CHO-K1 cells stably expressing human SGLT1", "type": "cell-based", "conditions": "[14C]methyl α-D-glucopyranoside uptake, 37° C., 30 minutes, read-out: IC50 for hSGLT1", "method": "(1) Creation of CHO-K1 Cells Stably Expressing Human SGLT1\nA plasmid vector expressing human SGLT1 protein was transfected into CHO-K1 cells using Lipofectamine 2000 (Invitrogen). The cells were cultured in the presence of 500 μg/mL geneticin to select resistant strains, followed by screening in the system shown below using sugar uptake capacity as an indicator to obtain SGLT1-expressing cells.\n(§7) (3) Inhibition Test of Sodium-Dependent Glucose Uptake in Stable Expression Cells\n(§8) The stably expressing cells prepared above were used in the following test.\n(§9) Pretreatment buffer (140 mM choline chloride, 2 mM KCl, 1 mM CaCl2, 1 mM MgCl2, 10 mM HEPES/5 mM Tris, pH 7.4) was added to the stably expressing cells, followed by incubation for 20 minutes. The pretreatment buffer was removed and replaced by uptake buffer containing a test compound (1 mM methyl α-D-glucopyranoside (containing [^14C]methyl α-D-glucopyranoside), 145 mM NaCl, 2 mM KCl, 1 mM CaCl2, 1 mM MgCl2, 10 mM HEPES/5 mM Tris, pH 7.4). Uptake reaction was performed at 37° C. for 30 minutes (SGLT1) or 60 minutes (SGLT2). […] A liquid scintillator (Perkin Elmer) was added and mixed well, followed by measurement of radioactivity using a β-ray analyzer. […]"}, "human SGLT2": {"biological_target": "human SGLT2 (Homo sapiens (Human), UniProt P31639)", "sequence (P31639 whole entry)": "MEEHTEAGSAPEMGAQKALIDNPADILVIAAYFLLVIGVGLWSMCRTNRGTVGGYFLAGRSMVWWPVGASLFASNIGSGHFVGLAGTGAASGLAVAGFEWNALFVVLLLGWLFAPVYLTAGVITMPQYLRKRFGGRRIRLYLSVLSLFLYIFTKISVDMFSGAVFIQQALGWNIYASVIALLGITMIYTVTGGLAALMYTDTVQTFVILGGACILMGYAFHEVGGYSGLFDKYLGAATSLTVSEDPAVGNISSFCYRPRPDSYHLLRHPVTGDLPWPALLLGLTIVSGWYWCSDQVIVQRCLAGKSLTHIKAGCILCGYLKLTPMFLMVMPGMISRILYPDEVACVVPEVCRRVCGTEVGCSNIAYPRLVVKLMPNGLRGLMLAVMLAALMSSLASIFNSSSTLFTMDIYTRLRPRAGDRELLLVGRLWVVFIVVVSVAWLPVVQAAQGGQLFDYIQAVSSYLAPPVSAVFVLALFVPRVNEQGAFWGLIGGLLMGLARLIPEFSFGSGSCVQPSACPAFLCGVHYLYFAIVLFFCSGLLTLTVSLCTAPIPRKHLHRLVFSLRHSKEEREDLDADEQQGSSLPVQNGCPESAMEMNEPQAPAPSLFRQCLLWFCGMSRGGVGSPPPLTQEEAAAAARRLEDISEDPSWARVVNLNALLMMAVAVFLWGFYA", "assay": "Inhibition test of sodium-dependent glucose uptake in CHO-K1 cells stably expressing human SGLT2", "type": "cell-based", "conditions": "[14C]methyl α-D-glucopyranoside uptake, 37° C., 60 minutes, read-out: IC50 for hSGLT2", "method": "(2) Creation of CHO-K1 Cells Stably Expressing Human SGLT2\nA plasmid vector expressing human SGLT2 protein was transfected into CHO-K1 cells using Lipofectamine LTX (Invitrogen). The cells were cultured in the presence of 1000 μg/mL geneticin to select resistant strains, followed by screening in the system shown below using sugar uptake capacity as an indicator to obtain SGLT2-expressing cells.\nas §7, §8, §9"}, "[2]": {"assay": "Renal concentrations after repeated oral administration for 3 days", "type": "in vivo, SD/IGS rats", "method": "(2) Renal Concentrations of the Compound (I) of the Present Invention After Repeated Oral Administration for 3 Days\nSD/IGS rats at 7 weeks of age (male, non-fasting, Charles River Laboratories Japan Inc.) were orally administered once a day for 3 consecutive days with the compound (I) (3 mg/kg) prepared in a 0.5% aqueous solution of CMC. At 48 hours after the final drug administration, the rats were exsanguinated via the postcaval vein under isoflurane anesthesia, and their kidneys were excised after they were confirmed to be euthanized. After the tissue surface was washed with physiological saline, each tissue was measured for its weight and homogenized in 4 volumes of purified water under ice cooling. The drug concentration in each homogenate was determined in the same manner as shown in Test Example 2(1) by LC-MS/MS using compound 11 as an internal standard substance."}, "[3]": {"assay": "Renal concentrations until one week after single oral administration", "type": "in vivo, SD/IGS rats", "conditions": "male Sprague-Dawley rats", "method": "(1) Changes in Renal Concentrations of Compounds 4, 10, 11 and 33 Disclosed in WO2007/136116 Until One Week After Oral Administration\nSD/IGS rats at 7 weeks of age (male, non-fasting, Charles River Laboratories Japan Inc.) were orally administered with compound 4, 10 or 33 (1 mg/kg each) or compound 11 (0.3 mg/kg) prepared in a 0.5% aqueous solution of CMC. At 24, 72 and 168 hours after drug administration, the rats were exsanguinated via the postcaval vein under ether anesthesia, and their kidneys were excised after they were confirmed to be euthanized. After the tissue surface was washed with physiological saline, each tissue was measured for its weight and homogenized in 4 volumes of purified water under ice cooling. To each homogenate, an acetonitrile/methanol solution containing an internal standard substance was added to remove proteins, and the supernatant was then subjected to LC-MS/MS (Applied Biosystems API3000). Drug-derived ions generated by electrospray ionization in positive ion mode were detected by selective reaction monitoring. The peak area of the resulting extracted ion chromatogram was analyzed by the internal standard method to calculate the drug concentration in the homogenate.\nAs the internal standard material for compounds 10 and 33, (1S)-1,5-anhydro-1-[5-(4-ethoxybenzyl)-2-methoxy-4-methylphenyl]-1-thio-D-glucitol,ethyl-D5 was used. As the internal standard materials for compounds 4 and 11, compound 11 and deuterium-labeled compound 11 (trishydroxymethyl-D6; —C(CD2OH)3), respectively, were used."}, "[4]": {"assay": "Oral glucose tolerance test (hypoglycemic effect) in streptozotocin diabetic model rats", "type": "in vivo, SD/IGS rats", "conditions": "OGTT using Sprague-Dawley rats, not STZ rats; oral dose 1 mg/kg", "method": "as §1, §2, §3, §4, §5, §6"}}, "note": "pIC50: −log10 of the molar value. Marks after values point to notes of the source that are not given here.", "data": [{"smiles": "COc1cc(C(C)C)c(Cc2ccc(/C=C/C(C)(C)C(=O)NC(C)(C)C(N)=O)cc2C)cc1[C@@H]1O[C@H](CO)[C@@H](O)[C@H](O)[C@H]1O", "note": "[Compound (I)]", "values": [{"measurement": "hypoglycemic action (in words)", "setting": "[1]; glucose tolerance test, compound of the invention", "result": "potent hypoglycemic action"}, {"measurement": "pIC50", "setting": "human SGLT1", "result": 7.19}, {"measurement": "pIC50", "setting": "human SGLT2", "result": 6.26}, {"measurement": "remaining in the kidney (in words)", "setting": "[2]; 3 mg/kg for 3 consecutive days, at subsequent day 2", "result": "did not remain in the kidney"}, {"measurement": "Concentration of compounds in kidney after 3 days continuous oral administration, After 2 days", "setting": "[2]; 3 mg/kg po once a day for 3 days, male Sprague-Dawley rats, 48 hours after final administration, limit of detection 5 ng/g", "result": "ND^# (ND (not determined) means limit of detection (5 ng/g).)"}]}, {"smiles": "Cc1cc(O)c([C@@H]2O[C@H](CO)[C@@H](O)[C@H](O)[C@H]2O)cc1Cc1ccc(CCCC(=O)NC(C)(C)C(N)=O)cc1", "note": "[compound 4]", "values": [{"measurement": "Concentration of compounds in kidney after single oral administration, After 1 day", "setting": "[3]; 1 mg/kg po, 1 day (24 hours)", "result": "68.4 ± 7.49", "unit": "ng/g"}, {"measurement": "Concentration of compounds in kidney after single oral administration, After 3 days", "setting": "[3]; 1 mg/kg po, 3 days (72 hours)", "result": "85.5 ± 23.1", "unit": "ng/g"}, {"measurement": "Concentration of compounds in kidney after single oral administration, After 7 days", "setting": "[3]; 1 mg/kg po, 7 days (168 hours)", "result": "76.3 ± 15.5", "unit": "ng/g"}, {"measurement": "STZ rats OGTT % inhibition ΔAUC0-1h (mg/dl) @ 1 mg/kg/po", "setting": "[1]", "result": 51, "unit": "%"}]}, {"smiles": "Cc1cc(O)c([C@@H]2O[C@H](CO)[C@@H](O)[C@H](O)[C@H]2O)cc1Cc1ccc(CCNC(=O)NC(C)(C)CO)cc1", "note": "[compound 10]", "values": [{"measurement": "Concentration of compounds in kidney after single oral administration, After 1 day", "setting": "[3]; 1 mg/kg po, 1 day (24 hours)", "result": "167 ± 36.3", "unit": "ng/g"}, {"measurement": "Concentration of compounds in kidney after single oral administration, After 3 days", "setting": "[3]; 1 mg/kg po, 3 days (72 hours)", "result": "124 ± 12.2", "unit": "ng/g"}, {"measurement": "Concentration of compounds in kidney after single oral administration, After 7 days", "setting": "[3]; 1 mg/kg po, 7 days (168 hours)", "result": "53.8 ± 7.6", "unit": "ng/g"}, {"measurement": "STZ rats OGTT % inhibition ΔAUC0-1h (mg/dl) @ 1 mg/kg/po", "setting": "[1]", "result": 69, "unit": "%"}]}, {"smiles": "Cc1cc(O)c([C@@H]2O[C@H](CO)[C@@H](O)[C@H](O)[C@H]2O)cc1Cc1ccc(CCNC(=O)NC(CO)(CO)CO)cc1", "note": "[compound 11]", "values": [{"measurement": "Concentration of compounds in kidney after single oral administration, After 1 day", "setting": "[3]; 0.3 mg/kg po (footnote *), 1 day, mean ± S.D.", "result": "63.5 ± 20.1* ng/g"}, {"measurement": "Concentration of compounds in kidney after single oral administration, After 3 days", "setting": "[3]; 0.3 mg/kg po (footnote *), 3 days, mean ± S.D.", "result": "67.3 ± 3.15* ng/g"}, {"measurement": "Concentration of compounds in kidney after single oral administration, After 7 days", "setting": "[3]; 0.3 mg/kg po (footnote *), 7 days, mean ± S.D.", "result": "48.7 ± 18.3* ng/g"}, {"measurement": "STZ rats OGTT % inhibition ΔAUC0-1h (mg/dl) @ 1 mg/kg/po", "setting": "[1]", "result": 68, "unit": "%"}]}, {"smiles": "Cc1cc(O)c([C@@H]2O[C@H](CO)[C@@H](O)[C@H](O)[C@H]2O)cc1Cc1ccc(CCNC(=O)NC2CCN(Cc3ccccc3)CC2)cc1", "note": "[compound 33]", "values": [{"measurement": "Concentration of compounds in kidney after single oral administration, After 1 day", "setting": "[3]; 1 mg/kg po, 1 day (24 hours)", "result": "29.8 ± 6.79", "unit": "ng/g"}, {"measurement": "Concentration of compounds in kidney after single oral administration, After 3 days", "setting": "[3]; 1 mg/kg po, 3 days (72 hours)", "result": "25.5 ± 8.68", "unit": "ng/g"}, {"measurement": "Concentration of compounds in kidney after single oral administration, After 7 days", "setting": "[3]; 1 mg/kg po, 7 days (168 hours)", "result": "16.2 ± 3.11", "unit": "ng/g"}, {"measurement": "OGTT % inhibition ΔAUC0-1h (mg/dl) @ 1 mg/kg/po", "setting": "[4]", "result": "81^# %"}]}]}
